According to patent US20210290576A1, “STRUCTURALLY MODIFIED FATTY ACIDS FOR IMPROVING GLYCEMIC CONTROL AND TREATING INFLAMMATORY BOWEL DISEASE” (NORTHSEA THERAPEUTICS B.V., priority 2018, published 2021):
Where two headings read alike, the source gives them in different places.

Columns and labels:
atherogenic lipids [1] = conditions: humans; cited from earlier work
[2] = tested on: ob/ob mice, T2DM rodent model; experiment: Glucose tolerance after 21-day treatment in high-fat diet fed ob/ob mice; type: in vivo; conditions: 112 mg/kg once daily via diet, 21 days
Protocol: This study was carried out to assess the effects of chronic treatment with Compound B or Compound A on glucose tolerance in a T2DM rodent model.
For assessing the effects of Compound A, ob/ob mice were fed a high-fat diet (comprising 2% cholesterol, 40% fat (containing 18% trans-fatty acids), 20% fructose) for 15 weeks starting at age 5 weeks. […] After 21 days the mice received a 2 g/kg oral glucose load. After the oral glucose load, plasma glucose was measured at multiple time points from 0-240 minutes.

atherogenic lipids [3] = conditions: APOE*3.CETP mice; cited from earlier work
[4] = tested on: ob/ob mice, rodent model of T2DM; experiment: Oral glucose (2 g/kg) tolerance test after 5 weeks of treatment in ob/ob mice; type: in vivo; conditions: 15, 45 and 135 mg/kg bw/d
Protocol: Mice were fed a standard low-fat (7% w/w fat) diet. After 4-weeks, the mice were fasted for 4 hours and the effects of Compound A were assessed. Assessment of the effects of Compound A included basal levels of blood glucose, plasma insulin, HbA1c levels, and homeostatic model assessment of insulin resistance (HOMA-IR). HOMA-IR is an assessment of insulin resistance and is calculated by the following formula: fasting insulin (micro U/L)×fasting glucose […]/22.5.
After 5 weeks, an oral glucose (2 g/kg) tolerance test was performed after a 4 hour fast.

active GLP-1 = experiment: Active GLP-1 during an oral glucose tolerance test (OGTT) and at 24 h in lean male SPD rats; type: in vivo, Sprague-Dawley (SPD) rats
Protocol: (§1) Evaluation of the Acute Effects of Compound a and Compound B Upon Active GLP-1 wconcentrations during an oral glucose tolerance test (OGTT) and at 24 h in lean male SPD Rats
(§2) To establish the acute effects of oral administration of Compound A and Compound B upon active GLP-1 and insulin concentrations, lean (about 300 g) male Sprague-Dawley (SPD) rats were divided into groups (n=6-8) and fed 74 and 84 mg/kg body weight of Compound A or Compound B respectively, either with or without concurrent administration of a dipeptidyl peptidase 4 (DPP-4) inhibitor 60 minutes prior to an oral glucose tolerance test (OGTT) as outlined below. Parallel groups receiving either corn oil alone (corn oil+vehicle, n=10) or corn oil and a DPP-4 inhibitor (“DPP-4 i”) (corn oil+(DPP-4 i), n=10) were included as controls. The DPP-4 inhibitor was linagliptin.
(§3) A second oral dose of 74 and 84 mg/kg bodyweight of Compound A or Compound B respectively was administered at 240 minutes and ad lib feeding was initiated. A second dose of DPP-4 inhibitor was administered at 480 mins prior to lights out. Blood samples were collected at 24 h for measurement of active GLP-1 and insulin. All values are mean, figures depict mean values (SEM).

plasma insulin = experiment: Plasma insulin at 24 h after OGTT in lean male SPD rats; type: in vivo, Sprague-Dawley (SPD) rats; conditions: non-significant
Protocol: as §1, §2, §3

For `CC/C=C\C/C=C\C/C=C\C/C=C\C/C=C\CCCCOC(CC)C(=O)O` (stereo not shown) [Compound A, 2-(((5Z,8Z,11Z,14Z,17Z)-icosa-5,8,11,14,17-pentaen-1-yl)oxy)butanoic acid], the atherogenic lipids (atherogenic lipids [1]) is given as “significantly reduce atherogenic lipids”, the “glucose tolerance compared to vehicle” value ([2]; 2 g/kg oral glucose load) is given as “significantly improved glucose tolerance from 15 minutes through 90 minutes” and the AUC glucose ([2]; p<0.01) is given as “significantly reduced”. For the same compound, the atherogenic lipids (atherogenic lipids [3]) was “significantly reduce atherogenic lipids”, the “glucose levels in oral glucose tolerance test” value [4] was “dose-dependent response in lowering glucose levels” and the “active GLP-1 concentrations at 24 h versus corn oil+vehicle” value (active GLP-1; in combination with DPP4 inhibitor (linagliptin), Compound A 74 mg/kg, Compound B 84 mg/kg, two oral doses) was “significantly (p<0.05) increased”. The “increase of plasma insulin concentrations at 24 h versus corn oil+vehicle and corn oil+DPP4 inhibitor” value (plasma insulin; compound alone) was 25% and the “increase of plasma insulin concentrations at 24 h versus corn oil+vehicle and corn oil+DPP4 inhibitor” value (plasma insulin; in combination with DPP4 inhibitor (linagliptin)) was 25%.
With `CC#CCn1c(N2CCC[C@@H](N)C2)nc2c1c(=O)n(Cc1nc(C)c3ccccc3n1)c(=O)n2C` [DPP4 inhibitor, linagliptin, reference compound] the “active GLP-1 (AUC 0-60 mins) versus corn oil alone” value (active GLP-1; corn oil+DPP4 inhibitor alone) was “no significant effect” and the “active GLP-1 concentrations at 24 h versus corn oil alone” value (active GLP-1; corn oil+DPP4 inhibitor alone) was “no significant effect”.
